Test results as given in ChEMBL document CHEMBL4002585, “Novel CLK1 inhibitors based on N-aryloxazol-2-amine skeleton - A possible way to dual VEGFR2 TK/CLK ligands” (Eur J Med Chem, 2017).

What was measured:
[1] = Inhibition of Leishmania major strain Friedlin N-terminal His6-tagged GSK3 expressed in Escherichia coli BL21(DE3) using Biotin-labeled GSP-2 peptide substrate after 90 mins in presence of [gamma33-P]ATP by scintillation proximity assay
[2] = Inhibition of Leishmania major strain Friedlin endogenous GSK3 using Biotin-labeled GSP-2 peptide substrate after 90 mins in presence of [gamma33-P]ATP by scintillation proximity assay
[3] = target: T1, Dual specificity protein kinase CLK1 (Homo sapiens, UniProt P49759); assay: Inhibition of human CLK1 (148 to 484 residues) expressed in Escherichia coli BL21(DE3) preincubated for 10 mins followed by AFRREWSPGKEAKK substrate addition by pyruvate kinase and lactate dehydrogenase coupled enzyme assay
T1 sequence (P49759 whole entry, the tested form may be a part): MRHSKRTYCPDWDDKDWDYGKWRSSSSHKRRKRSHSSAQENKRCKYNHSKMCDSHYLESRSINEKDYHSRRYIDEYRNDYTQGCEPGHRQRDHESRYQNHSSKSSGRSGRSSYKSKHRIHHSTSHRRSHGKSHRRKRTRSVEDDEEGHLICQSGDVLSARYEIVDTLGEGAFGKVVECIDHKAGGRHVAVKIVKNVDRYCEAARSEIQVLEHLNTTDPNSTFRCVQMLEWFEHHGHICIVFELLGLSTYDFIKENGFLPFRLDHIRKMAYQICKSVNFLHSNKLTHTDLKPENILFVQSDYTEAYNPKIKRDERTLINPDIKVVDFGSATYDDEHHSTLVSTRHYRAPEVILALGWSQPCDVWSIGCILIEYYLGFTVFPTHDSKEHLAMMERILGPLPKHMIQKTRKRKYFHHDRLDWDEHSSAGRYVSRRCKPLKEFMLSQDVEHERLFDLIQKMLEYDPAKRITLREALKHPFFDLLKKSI

[4] = Inhibition of Trypanosoma brucei GSK3 using Biotin-labeled GSP-2 peptide substrate after 90 mins in presence of [gamma33-P]ATP by scintillation proximity assay
[5] = Inhibition of Leishmania major strain Friedlin fusion protein GSK3 using Biotin-labeled GSP-2 peptide substrate after 90 mins in presence of [gamma33-P]ATP by scintillation proximity assay
[6] = Inhibition of Leishmania infantum MHOM/BR/82/BA-2 N-terminal His6-tagged GSK3 expressed in Escherichia coli BL21(DE3) using Biotin-labeled GSP-2 peptide substrate after 90 mins in presence of [gamma33-P]ATP by scintillation proximity assay
[7] = Inhibition of GSK3 (unknown origin) using substrate after 30 mins in presence of [gamma-33P]ATP by liquid scintillation counting; design: species or system Homo sapiens
[8] = target: Glycogen synthase kinase-3 (Homo sapiens, UniProt P49840+P49841); assay: Inhibition of GSK3 alpha/beta (unknown origin) using substrate after 30 mins in presence of [gamma-33P]ATP by liquid scintillation counting; assay type: protein assay
[9] = target: T1, Dual specificity protein kinase CLK1; assay: Inhibition of human CLK1 using substrate after 30 mins in presence of [gamma-33P]ATP by liquid scintillation counting
CDK9/cyclin T1 = CDK9/cyclin T1 (Homo sapiens, UniProt P50750); assay: Inhibition of CDK9/CyclinT (unknown origin) using substrate after 30 mins in presence of [gamma-33P]ATP by liquid scintillation counting; assay type: protein-complex assay
Sequence of CDK9/cyclin T1 (O60563 whole entry): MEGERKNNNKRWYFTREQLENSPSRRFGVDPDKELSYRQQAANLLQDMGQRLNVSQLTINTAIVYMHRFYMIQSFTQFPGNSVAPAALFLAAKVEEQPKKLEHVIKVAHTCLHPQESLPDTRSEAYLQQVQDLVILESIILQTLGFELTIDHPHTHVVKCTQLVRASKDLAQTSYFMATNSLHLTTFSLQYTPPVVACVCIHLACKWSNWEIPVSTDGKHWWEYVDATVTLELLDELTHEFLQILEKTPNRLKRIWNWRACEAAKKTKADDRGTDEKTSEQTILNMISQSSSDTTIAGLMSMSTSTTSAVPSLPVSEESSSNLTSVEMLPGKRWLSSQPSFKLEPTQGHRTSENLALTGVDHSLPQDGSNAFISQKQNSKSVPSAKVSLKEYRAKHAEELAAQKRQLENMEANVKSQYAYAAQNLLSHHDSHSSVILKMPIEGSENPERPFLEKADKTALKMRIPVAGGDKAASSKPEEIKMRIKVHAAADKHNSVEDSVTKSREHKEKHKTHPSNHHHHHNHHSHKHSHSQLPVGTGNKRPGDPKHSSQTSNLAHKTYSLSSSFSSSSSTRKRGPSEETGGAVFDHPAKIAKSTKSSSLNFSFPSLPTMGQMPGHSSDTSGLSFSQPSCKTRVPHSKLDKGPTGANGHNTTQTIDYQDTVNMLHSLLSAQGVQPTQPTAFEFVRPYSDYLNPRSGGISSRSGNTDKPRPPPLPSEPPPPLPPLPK
Sequence of CDK9/cyclin T1 (P50750 whole entry): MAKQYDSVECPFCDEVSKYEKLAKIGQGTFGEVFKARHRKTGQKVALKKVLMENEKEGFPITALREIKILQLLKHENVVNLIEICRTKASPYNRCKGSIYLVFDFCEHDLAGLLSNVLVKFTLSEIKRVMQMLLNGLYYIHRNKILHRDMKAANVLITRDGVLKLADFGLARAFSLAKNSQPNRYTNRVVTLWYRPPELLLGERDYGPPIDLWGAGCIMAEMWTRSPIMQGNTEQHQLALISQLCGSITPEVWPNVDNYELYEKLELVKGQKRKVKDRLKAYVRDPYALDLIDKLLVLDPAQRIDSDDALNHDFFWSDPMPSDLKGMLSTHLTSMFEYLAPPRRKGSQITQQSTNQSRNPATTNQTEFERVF

[10] = target: Dual specificity tyrosine-phosphorylation-regulated kinase 1A (Homo sapiens, UniProt Q13627); assay: Inhibition of DYRK1A (unknown origin) using substrate after 30 mins in presence of [gamma-33P]ATP by liquid scintillation counting
[11] = target: Vascular endothelial growth factor receptor 2 (Homo sapiens, UniProt P35968); assay: Inhibition of VEGFR2 (unknown origin) using substrate after 30 mins in presence of [gamma-33P]ATP by liquid scintillation counting
Sequence of Vascular endothelial growth factor receptor 2 (P35968 whole entry): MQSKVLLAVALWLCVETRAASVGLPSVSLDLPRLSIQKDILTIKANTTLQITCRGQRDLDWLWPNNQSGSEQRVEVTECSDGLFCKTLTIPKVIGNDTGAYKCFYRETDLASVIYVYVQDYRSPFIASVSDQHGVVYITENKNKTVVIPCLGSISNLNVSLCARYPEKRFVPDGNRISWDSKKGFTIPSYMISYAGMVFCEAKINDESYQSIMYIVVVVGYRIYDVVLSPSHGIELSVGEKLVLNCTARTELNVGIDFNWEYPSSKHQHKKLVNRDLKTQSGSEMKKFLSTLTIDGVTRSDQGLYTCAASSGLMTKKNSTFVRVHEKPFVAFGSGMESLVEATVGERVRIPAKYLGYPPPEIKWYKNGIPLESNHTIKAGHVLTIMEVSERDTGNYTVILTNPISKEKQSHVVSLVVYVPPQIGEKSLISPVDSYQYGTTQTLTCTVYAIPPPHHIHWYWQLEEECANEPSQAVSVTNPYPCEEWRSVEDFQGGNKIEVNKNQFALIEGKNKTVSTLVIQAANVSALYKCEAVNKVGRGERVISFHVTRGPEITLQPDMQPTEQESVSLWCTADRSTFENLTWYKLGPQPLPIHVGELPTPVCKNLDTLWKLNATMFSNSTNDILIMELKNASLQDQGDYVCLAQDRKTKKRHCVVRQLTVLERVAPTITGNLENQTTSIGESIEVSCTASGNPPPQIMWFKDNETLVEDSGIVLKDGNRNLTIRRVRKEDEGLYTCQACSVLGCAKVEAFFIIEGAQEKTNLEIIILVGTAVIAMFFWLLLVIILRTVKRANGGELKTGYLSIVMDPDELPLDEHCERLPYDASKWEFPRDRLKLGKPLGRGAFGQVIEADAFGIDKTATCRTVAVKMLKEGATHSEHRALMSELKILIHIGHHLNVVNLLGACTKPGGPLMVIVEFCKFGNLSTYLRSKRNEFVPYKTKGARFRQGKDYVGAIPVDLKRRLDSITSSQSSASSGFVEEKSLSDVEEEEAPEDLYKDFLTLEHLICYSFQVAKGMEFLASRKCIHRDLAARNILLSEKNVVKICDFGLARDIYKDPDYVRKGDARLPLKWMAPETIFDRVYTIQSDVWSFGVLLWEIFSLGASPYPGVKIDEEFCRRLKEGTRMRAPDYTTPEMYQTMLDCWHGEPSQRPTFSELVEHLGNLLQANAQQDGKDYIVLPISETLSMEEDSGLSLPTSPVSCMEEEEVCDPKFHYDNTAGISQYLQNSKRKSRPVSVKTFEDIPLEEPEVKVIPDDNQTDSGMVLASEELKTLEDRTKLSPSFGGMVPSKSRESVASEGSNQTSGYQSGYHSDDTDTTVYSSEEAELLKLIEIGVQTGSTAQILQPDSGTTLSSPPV

SMILES: Nc1nc(Nc2ccc(S(N)(=O)=O)cc2)nn1C(=S)Nc1c(F)cccc1F
- IC50 [1]: 320 nM
- IC50 [2]: 180 nM
- IC50 [3]: 8.9 nM
- IC50 [4]: 120 nM
- IC50 [5]: 150 nM
- IC50 [6]: 260 nM

SMILES: CCS(=O)(=O)c1ccc(OC)c(Nc2ncc(/C=C/c3ccccc3)o2)c1
- IC50 [7]: 4000 nM
- IC50 [8]: 7500 nM
- IC50 [9]: 40 nM
- IC50 (CDK9/cyclin T1): 200 nM
- IC50 [10]: 7000 nM

SMILES: CCS(=O)(=O)c1ccc(OC)c(Nc2ncc(-c3ccc4cc(OC)ccc4c3)o2)c1
- IC50 [9]: 20 nM
- IC50 [10]: 1000 nM

SMILES: CCS(=O)(=O)c1ccc(OC)c(Nc2ncc(-c3ccc(CC#N)c(-c4ccccn4)c3)o2)c1
- IC50 [9]: 80 nM
- IC50 [11]: 23 nM

SMILES: CCS(=O)(=O)c1ccc(OC)c(Nc2ncc(-c3cc4ccccc4s3)o2)c1
- IC50 [9]: 30 nM
- IC50 [10]: 500 nM
